Tests used:
Assay type in all cases: cell-based
A2780 [1] = experiment: Binding affinity to alpha tubulin in human A2780 cells assessed as disruption of tubulin polymerization by measuring cell proliferation at higher concentration after 48 hrs by CellTiter non-radioactive assay relative to control
A2780 [2] = experiment: Binding affinity to alpha tubulin in human A2780 cells assessed as disruption of tubulin polymerization by measuring reduction in cell proliferation after 48 hrs by CellTiter non-radioactive assay
Homo sapiens = species: Homo sapiens; experiment: Binding affinity to alpha tubulin in human OVCAR5 cells assessed as disruption of tubulin polymerization by measuring reduction in cell proliferation after 48 hrs by CellTiter non-radioactive assay

SMILES	Activity (A2780 [1])	GI50 (A2780 [2])	GI50 (Homo sapiens)
C/C=C/C[C@H](C)[C@@H](OC)[C@@H](C)[C@H](O)C[C@H]1OC(=O)C(Cl)=C[C@H]1CC	10 to 20%	4480 nM	1080 nM
C/C=C/C[C@H](C)[C@@H](OC)[C@@H](C)[C@H](O)C[C@H]1OC(=O)C=C[C@H]1CC	10 to 20%	24.3 nM	14.4 nM
CC(=O)O[C@H]1C(=O)[C@@]2(C)[C@H]([C@H](OC(=O)c3ccccc3)[C@]3(O)C[C@H](OC(=O)[C@H](O)[C@@H](NC(=O)c4ccccc4)c4ccccc4)C(C)=C1C3(C)C)[C@]1(OC(C)=O)CO[C@@H]1C[C@@H]2O	10 to 20%	7.53 nM	21 nM
C/C=C/C[C@H](C)[C@@H](OC)[C@@H](C)[C@H](O)C[C@H]1OC(=O)C(Br)=C[C@H]1CC	< 10%	901 nM	44.9 to 26200 nM
C/C=C/C[C@H](C)[C@@H](OC)[C@@H](C)[C@H](O)C[C@H]1OC(=O)C(C)=C[C@H]1CC	10 to 20%	10200 nM	3360 nM
C/C=C/C[C@H](C)[C@@H](OC)[C@@H](C)[C@H](O)C[C@H]1OC(=O)C(c2ccccc2)=C[C@H]1CC	10 to 20%	> 50000 nM	> 50000 nM
C/C=C/C[C@H](C)[C@@H](OC)[C@@H](C)[C@H](O)C[C@H]1OC(=O)C(F)=C[C@H]1CC	10 to 20%	5110 nM	3240 nM

— ChEMBL document CHEMBL4229330, “Synthesis and evaluation of C2 functionalized analogs of the α-tubulin-binding natural product pironetin” (Bioorg Med Chem Lett, 2018)
